Assay results: patent US20240417405A1, “Substituted Spiro Derivatives” (Janssen Pharmaceutica NV, priority 2021, published 2024)

Tests used:
MOLM14 cells = test: Proliferation assay, spheroid-like growth, MOLM14 (MLL-AF9 rearranged); assay type: cell-based, human; conditions: Homo sapiens, MOLM-14, 192 h, 8 days, confluence as measure of spheroid size, read-out: spheroid assay_OneTime MOLM14 IC50
Procedure, shortened: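 Seed cells at linear-growth densities in low-attachment wells; add test compound at several concentrations, normalized to 0.3% DMSO; incubate 8 days at 37 °C; image spheroids and measure confluence; calculate absolute IC50 against DMSO and reference-compound controls.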

KO-52 cells = test: Proliferation assay, spheroid-like growth, KO-52 (MLL wildtype control cell line); assay type: cell-based, human; conditions: Homo sapiens, 192 h, KO-52 control cells, 8 days, confluence as measure of spheroid size; read-out: spheroid assay_OneTime KO-52 IC50
Procedure: The anti-proliferative effect of menin/MLL protein/protein interaction inhibitor test compounds was assessed in human leukemia cell lines. The cell line MOLM14 harbors a MLL translocation and expresses the MLL fusion proteins MLL-AF9, respectively, as well as the wildtype protein from the second allele. […] KO-52 was used as a control cell line containing two MLL (KMT2A) wildtype alleles in order to exclude compounds that display general cytotoxic effects.
MOLM14 cells were cultured in RPMI-1640 (Sigma Aldrich) supplemented with 10% heat-inactivated fetal bovine serum (HyClone), 2 mM L-glutamine (Sigma Aldrich) and 50 μg/ml gentamycin (Gibco). KO-52 cell lines were propagated in alpha-MEM (Sigma Aldrich) supplemented with 20% heat-inactivated fetal bovine serum (HyClone), 2 mM L-glutamine (Sigma Aldrich) and 50 μg/ml gentamycin (Gibco).
In order to assess the anti-proliferative effects, 200 MOLM14 cells, or 300 KO-52 cells were seeded in 200 μl media per well in 96-well round bottom, ultra-low attachment plates (Costar, catalogue number 7007). Cell seeding numbers were chosen based on growth curves to ensure linear growth throughout the experiment. Test compounds were added at different concentrations and the DMSO content was normalized to 0.3%. Cells were incubated for 8 days at 37° C. and 5% CO2. Spheroid like growth was measured in real-time by live-cell imaging (IncuCyteZOOM, Essenbio, 4× objective) acquiring images at day 8. Confluence (%) as a measure of spheroid size was determined using an integrated analysis tool.
In order to determine the effect of the test compounds over time, the confluence in each well as a measure of spheroid size, was calculated. Confluence of the highest dose of a reference compound was used as baseline for the LC (Low control) and the confluence of DMSO treated cells was used as 0% cytotoxicity (High Control, HC).
Absolute IC50 values were calculated as percent change in confluence as follows:
LC=Low Control: cells treated with e.g. 1 μM of the cytotoxic agent staurosporin, or e.g. cells treated with a high concentration of an alternative reference compound
GraphPad Prism (version 7.00) was used to calculate the IC50. Dose-response equation was used for the plot of % Effect vs Log 10 compound concentration with a variable slope and fixing the maximum to 100% and the minimum to 0%.

[1] = biological target: T1, menin/MLL (terbium chelate-labeled menin, FITC-MBM1 peptide) (Homo sapiens, UniProt O00255, T541A); test: Menin/MLL homogenous time-resolved fluorescence (HTRF) assay; assay type: binding; conditions: 30 min incubation
T1 construct: Menin (a.a 1-610-6xhis tag)
T1 sequence (O00255 with tags, fused parts or gaps T541A): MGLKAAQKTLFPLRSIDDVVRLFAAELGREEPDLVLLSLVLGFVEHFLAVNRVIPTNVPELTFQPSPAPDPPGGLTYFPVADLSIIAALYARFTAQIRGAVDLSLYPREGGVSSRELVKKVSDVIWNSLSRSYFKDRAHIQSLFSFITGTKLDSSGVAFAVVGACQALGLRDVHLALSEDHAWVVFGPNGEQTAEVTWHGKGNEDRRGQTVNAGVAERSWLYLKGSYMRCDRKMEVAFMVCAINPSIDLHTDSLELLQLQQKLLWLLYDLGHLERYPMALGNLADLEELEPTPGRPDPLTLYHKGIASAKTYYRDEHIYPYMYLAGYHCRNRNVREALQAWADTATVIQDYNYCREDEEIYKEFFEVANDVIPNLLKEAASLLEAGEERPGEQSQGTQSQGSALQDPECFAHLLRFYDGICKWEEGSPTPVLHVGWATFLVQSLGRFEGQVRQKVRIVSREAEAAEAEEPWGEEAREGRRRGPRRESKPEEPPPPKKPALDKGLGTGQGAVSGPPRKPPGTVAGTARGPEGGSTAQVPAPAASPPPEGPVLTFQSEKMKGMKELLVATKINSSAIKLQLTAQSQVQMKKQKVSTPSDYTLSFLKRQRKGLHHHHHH
Procedure, shortened: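 Percent inhibition, calculated from the 520/490 nm HTRF ratio against high and low controls, was fitted for IC50 with a 0.1 nM detection limit. Reactions held 200 pM Tb-menin and 75 nM FITC-MBM1 in pH 7.5 Tris buffer with 0.5% DMSO.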

IC50 (MOLM14 cells) [nM] | IC50 [1] [nM] | Compound | IC50 (KO-52 cells) [nM]
7 | 0.1 | CC(C)[C@@H]([C@H]1C[C@@H](N2CC[C@H](C(=O)N(C)C)C2)C1)N1CC2(CCN(c3ncnnc3Oc3ccc(F)cc3-c3cnncc3C3CC3)C2)C1 (single isomer, unassigned) [Compound 116] | 8890
2 | 0.1 | CC(C)[C@H]([C@H]1C[C@@H](N2C[C@@H](O)C3(CCC3)C2)C1)N1CC2(CCN(c3ncnnc3Oc3ccc(F)cc3-c3cncnc3C3CC3)C2)C1 (single isomer, unassigned) [Compound 215] | 7940
28 | 0.1 | CC(C)[C@@H]([C@H]1C[C@]2(COC(=O)N2)C1)N1CC2(CCN(c3ncnnc3Oc3ccc(F)cc3-c3cncnc3C3CC3)C2)C1 (single isomer, unassigned) [Compound 320] | 4600
140 | 0.4 | CC(C)C([C@H]1C[C@@H](NC(=O)C2CC2)C1)N1CC2(CCN(c3ncnnc3Oc3ccc(F)cc3-c3cccc(=O)n3C3CC3)C2)C1 (stereo partly drawn) [Compound 189] | > 15000
3.3 | 0.05 | CNC(=O)c1cnc(N[C@H]2C[C@@H]([C@@H](C(C)C)N3CC4(CCN(c5ncnnc5Oc5ccc(F)cc5-c5cncnc5C5CC5)C4)C3)C2)s1 (single isomer, unassigned) [Compound 437] | 4700
150 | 0.2 | CC(=O)N1CCC12CN([C@H]1C[C@H]([C@@H](C(C)C)N3CC4(CCN(c5ncnnc5Oc5ccc(F)cc5-c5cncnc5C5CC5)C4)C3)C1)C2 (single isomer, unassigned) [Compound 173] | > 15000
50 | 0.2 | CC(C)C([C@H]1C[C@@H](N2CCC(C(=O)N(C)C)CC2)C1)N1CC2(CCN(c3ncnnc3Oc3ccc(F)cc3-c3cncnc3C3CC3)C2)C1 (stereo partly drawn) [Compound 131] | 6200
73 | 0.3 | CC(C)C([C@H]1C[C@@H](N2CCOCC2)C1)N1CC2(CCN(c3ncnnc3Oc3ccc(F)cc3-c3cncnc3C3CC3)C2)C1 (stereo partly drawn) [Compound 120] | > 15000

The next lines start with the compound.

Compound | IC50 (MOLM14 cells) [nM] | IC50 [1] [nM] | IC50 (KO-52 cells) [nM]
CC(=O)N1CC2(CCCN2[C@H]2C[C@@H]([C@@H](C(C)C)N3CC4(CCN(c5ncnnc5Oc5ccc(F)cc5-c5cncnc5C5CC5)C4)C3)C2)C1 (single isomer, unassigned) [Compound 56] | 350 | 0.4 | > 15000
CC(C)[C@H]([C@H]1C[C@H](N2CC[C@@H](C(C)(C)O)C2)C1)N1CC2(CCN(c3ncnnc3Oc3ccc(F)cc3-c3cncnc3C3CC3)C2)C1 (single isomer, unassigned) [Compound 71] | 60 | 0.1 | 9730
CC1CN([C@H]2C[C@@H]([C@H](C(C)C)N3CC4(CCN(c5ncnnc5Oc5ccc(F)cc5-c5cncnc5C5CC5)C4)C3)C2)CCC1O (single isomer, unassigned) [Compound 87] | 820 | 1.9 | > 15000
CC(C)[C@H]([C@H]1C[C@H](N2CCC[C@H](C(=O)N(C)C)C2)C1)N1CC2(CCN(c3ncnnc3Oc3ccc(F)cc3-c3cncnc3C3CC3)C2)C1 (single isomer, unassigned) [Compound 52] | 210 | 0.4 | 14000
CC(C)[C@H]([C@H]1C[C@@H](N2CCC[C@H](O)C2)C1)N1CC2(CCN(c3ncnnc3Oc3ccc(F)cc3-c3cccnc3C3CC3)C2)C1 (single isomer, unassigned) [Compound 78] | 630 | 2.9 | 4640
COC1CCN([C@H]2C[C@@H](C(C(C)C)N3CC4(CCN(c5ncnnc5Oc5ccc(F)cc5-c5cncnc5C5CC5)C4)C3)C2)CC1 (single isomer, unassigned) [Compound 16] | 4 | 0.1 | 1880
